Test results taken from the NIST ThermoML archive (doi:10.1016/j.jct.2016.05.001).

Conditions: 101.33 kPa, Crystal; for molar entropy: Small (less than 1 g) adiabatic calorimetry; for mass density: X-ray diffraction

Nc1nc2ncc(CNc3ccc(C(=O)N[C@@H](CCC(=O)O)C(=O)O)cc3)nc2c(=O)[nH]1.O.O [folic acid dihydrate]
Conditions | mass density [kg/m3] | molar entropy [J/K/mol]
4 K | – | 0.0255
5 K | – | 0.0623
6 K | – | 0.1291
7 K | – | 0.2371
8 K | – | 0.3983
9 K | – | 0.6346
10 K | – | 0.962
15 K | – | 3.956
20 K | – | 8.733
25 K | – | 15.36
30 K | – | 23.55
35 K | – | 32.93
40 K | – | 43.15
45 K | – | 53.9
50 K | – | 65
60 K | – | 87.81
70 K | – | 111.2
80 K | – | 134.6
90 K | – | 157.6
100 K | – | 180.2
110 K | – | 202.6
120 K | – | 224.6
130 K | – | 246.2
140 K | – | 267.7
150 K | 1556 | 288.9
160 K | – | 309.9
170 K | – | 330.6
175 K | 1554 | –
180 K | – | 351.2
190 K | – | 371.6
200 K | 1552 | 391.9
210 K | – | 412
220 K | – | 432
225 K | 1550 | –
230 K | – | 451.9
240 K | – | 471.7
250 K | 1549 | 491.4
260 K | – | 511
270 K | – | 530.5
273.15 K | – | 536.6
275 K | 1546 | –
280 K | – | 549.9
290 K | – | 569.3
298.15 K | – | 585
300 K | 1543 | 588.6
310 K | – | 607.8
320 K | – | 627
325 K | 1542 | –
330 K | – | 646.1
333 K | – | 651.9
350 K | 1540 | –
375 K | 1537 | –
